Consider 70 compounds from ChEMBL document CHEMBL3507680, “University of Dundee, Gates Library screen for HepG2 cell viability”.

The structures appear in SMILES notation.

The data set can be described thus: Human HepG2 cell viability assay in 384 well format. The class given is toxicity, cell-based. The arrangement: dose 125 nL, time 70.5 hour; concentration not given beside the values. The settings on record: HepG2 cells, read-out: Inhibition.
As to `Cc1cc(C2CCCN2C(=O)c2ccc(OCC(N)=O)cc2)no1` (stereo not given), the cytotoxicity at 70.5 h was -11.5%.

`COC1CCCN(Cc2nc(Cc3ccccc3F)no2)C1` (stereo not given): the cytotoxicity at 70.5 h is -5.83%. Take `Cc1csc(C(C)(C)NCCNS(C)(=O)=O)n1`: the cytotoxicity at 70.5 h was found to be 18.5%. `Cc1nc(-c2nnc(SCC(=O)O)n2C(C)c2ccccc2)co1` (stereo not given): the cytotoxicity at 70.5 h was -10%. The figure for `CC(CN1CCOCC1)NC(=O)NCc1cccs1` (stereo not given) is -7.69%; for `NC(=O)C1CCCN1Cc1ccccc1NC(=O)CC(F)(F)F` (stereo not given) it is -3.67%. Take `CC1(C)CN(Cc2c[nH]c(CC3CCCC3)n2)CC[C@]1(C)O`: the cytotoxicity at 70.5 h was -5.46%. Turning to `CCNc1cc2c(nn1)CCN(C(=O)Cc1ccc(C)nc1)C2`, the cytotoxicity at 70.5 h was -6.5%. The figure for `CCC1CCCCN1C(=O)Cn1nc(-c2cc(C)oc2C)cc(N)c1=O` (stereo not given) is -3.58%. Take `Cc1nc(C)n(CC2CCCN(CCc3ccccn3)C2)n1` (stereo not given): the cytotoxicity at 70.5 h was 28.4%. For the compound `Cc1cc(C)n(CC2CCCCN2CC(=O)Nc2nncs2)n1` (stereo not given), the cytotoxicity at 70.5 h was -7.4%.

Consider `CCCS(=O)(=O)N1CCO[C@H]2[C@@H](Oc3cccnc3)CC[C@@H]21`, for which the cytotoxicity at 70.5 h was -1.96%. For `O=C(C1CC1)N1CCC2(CCCN2Cc2ccc(F)cc2)CC1` the value was 5.51%. For `COCCNc1nc2c(c(NCC3CCOC3)n1)CCNCC2` (stereo not given) the value was -0.779%. For `Cc1nsc(NC(=O)N2CCN(Cc3ccccc3F)C(=O)C2)n1` the value was -8.72%. On to `CCC1=NN2C(=N)/C(=C\c3cccn3-c3ccc(Cl)cc3)C(=O)N=C2S1`, for which the cytotoxicity at 70.5 h stood at 9.55%. As to `CCCOc1ccccc1CCCNc1ncnc2oc(C)nc12`, the cytotoxicity at 70.5 h is -7.16%.

With `NC(=O)c1cc(NC(=O)N2CCOCC2)ccc1F`, the cytotoxicity at 70.5 h came to 9.19%. For `COc1ccc2cc(CNc3c(C)nn(C(C)C)c3C)ccc2c1`, the cytotoxicity at 70.5 h is -0.974%. Regarding `CC(C)(O)CCc1cccc(C(=O)NCc2cnn3cccnc23)c1`, the cytotoxicity at 70.5 h is -4.68%.

As for `O=S(=O)(NC1=NCN(CCc2cccs2)CN1)c1ccc(Br)cc1`, the cytotoxicity at 70.5 h was -18.9%. On to `Cc1noc(C2CCCN(C(=O)c3ccc(Br)cc3F)C2)n1` (stereo not given), for which the cytotoxicity at 70.5 h was -7.35%. As for `CC(C)(O)c1cn(C2CCN(C(=O)CCC(F)(F)F)CC2)nn1`, the cytotoxicity at 70.5 h is -2.56%. For the compound `CC(C(=O)Nc1ccnn1C(C)C)N1CCCN(c2nccs2)CC1` (stereo not given), the cytotoxicity at 70.5 h is -3.68%. For `O=C(O)CCN(Cc1ccc(F)c(F)c1)C(=O)C1CC1`, the cytotoxicity at 70.5 h is -11.3%. Turning to `Cc1ccc(Cl)cc1S(=O)(=O)NCc1cnc(N(C)C)n1C`, the cytotoxicity at 70.5 h is -11.7%. Consider `COCc1nc(C(=O)N2CCCC2c2ccccc2C)cs1` (stereo not given), for which the cytotoxicity at 70.5 h was -1.48%. The figure for `CCOC(=O)Cn1c(=O)c(OCC)nc2cnccc21` is -3.59%.

For `CO[C@@H]1CCN(S(=O)(=O)c2cn(C)cn2)[C@H]1Cc1ccccc1`, the cytotoxicity at 70.5 h was -1.49%. Turning to `CSCC(C)(O)CNC(=O)c1cc(Cl)ccc1Cl` (stereo not given), the cytotoxicity at 70.5 h is -7.98%.

Turning to `CNC(=O)C1CCN(C(=O)NCCc2ccc(Cl)s2)CC1`, the cytotoxicity at 70.5 h was -5.01%.

As for `O=C1[C@@H]2CCN(CC3CCOCC3)C[C@@H]2OCCN1c1ccccc1`, the cytotoxicity at 70.5 h was found to be 1.16%. Turning to `CCOC(=O)C1CCN(c2nccc(-n3nc(C)cc3C)n2)CC1`, the cytotoxicity at 70.5 h is -3.45%. `Cc1cc(C)n(C2CN(C(=O)c3cn4ccsc4n3)C2)n1`: the cytotoxicity at 70.5 h was found to be 2.53%. As to `c1ccc(CN2C[C@H]3CC[C@@H]2CN(Cc2nnc(C4CC4)o2)C3)cc1`, the cytotoxicity at 70.5 h is -1.91%. As to `Cc1nc(C2CCCN2C(=O)CCCOc2cccc(F)c2)no1` (stereo not given), the cytotoxicity at 70.5 h is -4.99%.

For `COC(=O)c1ccccc1NC(=O)c1nc2ccccc2n(C)c1=O`, the cytotoxicity at 70.5 h was 32.8%. For the compound `CO[C@@H]1CC[C@@H](N(C)C(=O)c2cn3cc(C)ccc3n2)[C@H]1O`, the cytotoxicity at 70.5 h is -9%. In the case of `NC(=O)CN(Cc1ccc(Br)cc1)C(=O)c1cccnc1`, the cytotoxicity at 70.5 h is -3.52%. As for `Cc1cccc(CN2CCC3(CCC(C(=O)N(C)C)O3)CC2)n1` (stereo not given), the cytotoxicity at 70.5 h was -9.32%. For `CCn1c(C)nnc1CN(C)C1CCN(CCc2ccncc2)C1` (stereo not given) the value was -3.16%. The figure for `CN(C)CCN1C(=O)C2(CCN(CC3CC3)CC2)c2ccccc21` is -4.59%; for `O=C(C1CCC1)N1C[C@@H](c2ccsc2)[C@@H]2CN(C3CCCC3)CC[C@@H]21` it is -3.74%; for `COc1ccccc1C1SCC(=O)Nc2c1c(=O)[nH]n2C1CCCCC1` (stereo not given) it is 20.9%.

Consider `O=C1Nc2ccccc2CC12CCN(CCO)C2` (stereo not given), for which the cytotoxicity at 70.5 h is -6.04%. On to `O=C(NCCCC(=O)N1Cc2ccccc2C1)NCc1ccsc1`, for which the cytotoxicity at 70.5 h came out at 5.3%. For `CN(C)C(=O)c1n[nH]c2c1CCN(Cc1nccs1)C2`, the cytotoxicity at 70.5 h is -4.93%. Regarding `CCc1cccc(NS(=O)(=O)c2cc(C)c(C(=O)O)s2)c1`, the cytotoxicity at 70.5 h was found to be 0.535%. Consider `CCn1nnnc1-c1cccc(NC(=O)COC2CCCC2)c1`, for which the cytotoxicity at 70.5 h worked out at 6.8%. On to `CC(C)(CNc1cc(F)ccc1F)S(C)(=O)=O`, for which the cytotoxicity at 70.5 h worked out at 0.249%. Take `Cc1cc(CN(C)CC2CCCN(CCc3ccc(Cl)cc3)C2)[nH]n1` (stereo not given): the cytotoxicity at 70.5 h was -4.86%. Turning to `CCOc1ccc(-c2ccnc(COc3ccccc3)n2)cc1C(=O)O`, the cytotoxicity at 70.5 h is -0.267%.

Regarding `c1ccc(CN(Cc2ncc[nH]2)Cc2nccs2)cc1`, the cytotoxicity at 70.5 h is -14.7%. With `CNCC(=O)N1CCCC1c1nc(C(C)C)no1` (stereo not given), the cytotoxicity at 70.5 h was -7.36%. Turning to `CC(C)Oc1ccc(CN2CCCC(N3CCOCC3)C2)cc1CO` (stereo not given), the cytotoxicity at 70.5 h is -5.76%.

On to `Cc1nnc2ccc(N3CCN(CCc4ccccn4)CC3)nn12`, for which the cytotoxicity at 70.5 h was -0.337%. The figure for `CC(C)c1noc(CCC(=O)NC2CCS(=O)(=O)C2)n1` (stereo not given) is 0.473%; for `CS(=O)(=O)N1CCCC(C(=O)Nc2cnn(COCC(F)(F)F)c2)C1` (stereo not given) it is 3.12%. Turning to `COCc1cc(O)nc(C2CCCN(Cc3cccc(Cl)c3Cl)C2)n1` (stereo not given), the cytotoxicity at 70.5 h is -4.6%. The figure for `O=C(C1CC=CC1)N1C[C@@H]2CN(Cc3ccsc3)CCO[C@@H]2C1` is -15.4%; for `O=C(NCc1ccccc1OCCO)Nc1ccc2c(c1)CCC2` it is 0.688%; for `Cc1ccc(C2(CN3CCN(Cc4cnc(C)n4C)CC3)CC2)cc1` it is 32.9%. `Cn1cccc1C(=O)N1CCC2(CC1)CN(S(C)(=O)=O)c1ccccc12`: the cytotoxicity at 70.5 h is 3.63%. As to `Cn1nccc1NC(=O)c1cccc(CN2C[C@H]3CC[C@@H](C2)N3)c1`, the cytotoxicity at 70.5 h was -1.03%.

Consider `Cc1nn(C)c2c(=O)n(C(C)C)c(NCCc3ccccc3)nc12`, for which the cytotoxicity at 70.5 h came out at 24.5%. `Cc1nccn1CCN(C)C(=O)C1CCN(C(=O)C2CCCC2)CC1`: the cytotoxicity at 70.5 h was 8.88%.

Consider `Cn1ccc(NC2CCN(C3CC3)C2=O)n1` (stereo not given), for which the cytotoxicity at 70.5 h amounted to 11.7%.

On to `CNS(=O)(=O)c1ccc(CNC(=O)NCC2CCOC2)cc1` (stereo not given), for which the cytotoxicity at 70.5 h was -31.2%. For `CC(C)(C)c1c[nH]c([C@@H]2COCCN2C2CCCCC2)n1`, the cytotoxicity at 70.5 h is -0.143%. `Cn1nccc1C(=O)N1CCN(C(=O)C2CC2)[C@@H]2CS(=O)(=O)C[C@@H]21`: the cytotoxicity at 70.5 h was -5.45%.
